# “Also recorded” adds a separate entry of the source. Where no end group is shown, it is not given here. [ ]: non-standard residue; d: D form.
# T1: polypeptide IK34720 (RSKAKNPLYRRRRRRRRR)
# T1 chain: RSKAKNPLYRRRRRRRRR
# Tests used:
# [1] = tested on: ICR mice, punch skin wound; assay: murine wound model, wound closure; assay type: in vivo; conditions: topical 10 μg per mouse daily for 10 consecutive days
# From the text: FIGS. 1 and 2 illustrate the effect of polypeptides IK34720 (SEQ ID NO: 3—RSKAKNPLYRRRRRRRRR) (FIG. 1) and the dextro-reverso sequence IK236770 (SEQ ID NO: 4—rrrrrrrrrylpnkaksr) (FIG. 2), on wound healing over 10 days in a murine wound model in accordance with the following protocol.
# Three groups of 8 male ICR mice with a mean weight of 22 g (+2 g) were used in the present study. The animals were housed in individual cages during the study. Under isoflurane gas anaesthesia, the shoulder and back region of each animal was shaved and a sharp punch (ID 12 mm) was used to induce a wound by removing the skin, including panniculus carnosus and adherent tissues on Day 1.
# Following induction of the wound the polypeptides IK34720 and IK236770 were topically administered to the site of the wound at a dosage of 10 μg per animal. […] An additional group which comprised the administration of Phosphate buffered Saline (PBS) at pH 7.4 was used as a negative control.
# The wound healing was analysed on Days 5, 7, 9 and 11 by tracing the periphery of the wound onto clear plastic sheets with the wound area calculated by an Image analyzer ProPlus (Media Cybernetics, Version 4.5.0.29. The percentage closure of the wound (%) was calculated. Percentage closure of the wound was determined on 5, 7, 9 and 11. ANOVA and Dunnett's test were applied to test significant significance between the treated groups (peptide and positive control groups) and the negative control group at each time point of measurement. Differences were considered statistically significant at P<0.05, and are indicated by *.
# human skin explants = assay: CPD formation in UV-irradiated human skin explants; assay type: cell-based; conditions: 3 hrs post irradiation/treatment; Calcitriol 1 nM; IK34720 50, 250 or 500 μM
# Protocol: Human skin removed at elective surgery was cleaned, dissected and cut into pieces of approx. 5 mm×5 mm. Each piece was placed in a well of a 96 well plate, with individual plates prepared to assess the effects 3 hrs post treatment. All samples were performed in triplicate for each treatment. Skin was subjected to UV-radiation from solar-simulated UV source for 1.5 h (UVR), or non-irradiation (SHAM). Given that human skin is thicker than mouse skin, human skin explants were exposed to a radiation dose three times higher than that used for mouse skin, i.e., 20 J/cm2 versus 7 J/cm^2, respectively, and the output spectrum of the laboratory solar simulator has previously been reported (Rybchyn M S et al, J Invest Dermatol. 2018 May; 138 (5): 1146-1156) and treated immediately after with a vehicle control, Calcitriol (1 nM) or the polypeptide IK34720 (SEQ ID NO: 3) at concentrations of 50 μM, 250 μM or 500 μM.
# Samples harvested at 3 hrs were fixed, section, stained and quantified as described in Example 5.
# dermal fibroblasts = assay: TBARS lipid peroxidation assay, UV-irradiated dermal fibroblasts; assay type: cell-based; conditions: IK-3 at the highest concentration (5 μM); 1,25D
# Protocol: The ability of the polypeptide RSKAKNPLYRRRRRRRRR to alter UV-induced oxidative damage of cell-derived lipids was examined using the TBARS thiobarbituric acid-reactive substances (TBARS) lipid peroxidation assay.
# After irradiation or sham-irradiation of dermal fibroblasts, supernatants (900 μL) were collected. In brief, 90 μL of butylated hydroxytoluene (2% w/w in ethanol) was added and samples kept frozen (−20° C.) until the TBARS assay. Petri dishes were washed twice with 1 mL of HBSS, cells scraped in 600 μL of water and 60 μL of 0.5% aqueous Triton X100 added to this solution, for protein determination carried out by the Lowry method (Lowry O H et al, J. Biol. Chem., 1951, 193:265-275). TBARS were fluorometrically assayed as described (Morlière P et al, Biochim. Biophys. Acta, 1991, 1084:261-268). Briefly, thawing samples were heated in the presence of thiobarbituric acid in acidic conditions, and TBARS extracted with 1-butanol and fluorometrically quantified (λexc=515 nm and Aem=550 nm). Tetraethoxypropane, which quantitatively yields the malondialdehyde-thiobarbituric acid adduct in the assay conditions, was used for calibration. TBARS values, expressed in malondialdehyde (MDA) equivalents, were normalized to the cell protein for each Petri dish. Each TBARS determination was performed in triplicate (e.g., with three Petri dishes per data point).
# MMP1 = MMP1 immunohistochemical staining in UV-irradiated human skin explants; assay type: cell-based; conditions: 3 hrs post irradiation/treatment; Calcitriol 1 nM; IK34720 50, 250 or 500 μM
# Protocol: Human skin (2×human explant tissues) removed at elective surgery was cleaned, dissected and cut into pieces of approx. 5 mm×5 mm. Each piece was placed in a well of a 96 well plate, with individual plates prepared to assess the effects 3 hrs post treatment. Skin was subjected to UV-radiation from solar-simulated UV source for 1.5 h (UVR), or non-irradiation (SHAM), and treated immediately after with a vehicle control, Calcitriol (1 nM) or the polypeptide IK34720 (SEQ ID NO: 3) at concentrations of 50 μM, 250 μM or 500 μM. In FIG. 17, IK50, IK250 and IK500 as μM concentrations refers to 15 μg, 75 μg and 150 μg of IK34720 per 120 μL culture medium/explant, respectively.
# Samples harvested at 3 hrs were fixed, sectioned, immunohistochemically stained for MMP1 and quantified for MMP1 expression, by expressing epidermal area stained for MMP1 as a function of total epidermal area examined.
# primary keratinocytes = assay: CPD detection by IHC in keratinocytes 3 h following UV-irradiation; assay type: cell-based; conditions: 5 μM after ssUV; fixed 3 h after UV
# Protocol: An in vitro assay was conducted allowing for densitometry analysis of CPD detection by IHC in keratinocytes 3 h following UV-irradiation in accordance with the following protocol.
# Keratinocytes were harvested and cultured as described above at Example 2. Samples were split into two groups, being UV irradiated (UVR) and non-UV irradiated (SHAM). UV-irradiation was performed by solar simulated UV-irradiation for cells, also as described above at Example 2. Irradiation solution was PBS containing 5 mM D-glucose. […]
# Harvested keratinocytes were plated on poly-D-lysine coated coverslips in 96 well plates and irradiated (or sham treated) as described above in at Example 2 in PBS containing 5 mM D-glucose. Keratinocytes were fixed 3 h after UV-irradiation. Immunohistochemistry and image analysis were performed as described previously (Gordon-Thomson et al., Photochem Photobiol Sci, 2012, 11 (12): 1837-47; Gupta et al., vide supra, Rybchyn M S et al., J Invest Dermatol, 2018; 138 (5): 1146-1156). Thymine dimers were detected using the anti-thymine dimer antibody (Sigma-Aldrich, Missouri, USA) at 10 μg/mL, and quantified as an index of CPD, as previously described (Douki T and Cadet J, Biochemistry, 2001, 40 (8): 2495-501).
# Following irradiation, keratinocytes were treated with either Calcitriol, vehicle control (Veh) or the polypeptide IK34720 (SEQ ID NO: 3; “IK”) IK14800; (RSKAKNPLYRRRRRRRRR), RSKAKNPLY (IK94000) and RRRRRRRRR (IK00900), at concentrations of 5 μM.
# [2] = target: T1, polypeptide IK34720 (RSKAKNPLYRRRRRRRRR)
molecule,measurement,setting,value
"CCNC(=O)[C@H]1O[C@@H](n2cnc3c(N)nc(NCCc4ccc(CCC(=O)O)cc4)nc32)[C@H](O)[C@@H]1O [CGS-21680, reference compound]",wound closure percentage,"[1]; Day 5 to Day 11, vs negative control (PBS)",increase wound healing
"C=C1/C(=C\C=C2/CCC[C@]3(C)[C@@H]([C@H](C)CCCC(C)(C)O)CC[C@@H]23)C[C@@H](O)C[C@@H]1O [Calcitriol, 1,25-dihydroxyvitamin D3, reference compound]",cells stained for CPDs,human skin explants,fewer stained cells
same,significant difference in TRS (TBA reactive substances) between Sham and UV irradiation,dermal fibroblasts,not seen
same,cells staining for MMP-1,MMP1,fewer stained cells
RRRRRRRRR [IK00900],CPD levels compared to vehicle-treated UV-irradiated keratinocytes,primary keratinocytes,decrease CPD levels; also recorded: statistically significant (*p<0.05) reduction in CPD levels
same,reduction in CPD levels compared to Calcitriol,primary keratinocytes,comparable reduction in CPD levels to keratinocytes treated with Calcitriol
RSKAKNPLY (not fully specified (some residues)) [IK94000],CPD levels compared to vehicle-treated UV-irradiated keratinocytes,primary keratinocytes,decrease CPD levels; also recorded: statistically significant (*p<0.05) reduction in CPD levels
same,reduction in CPD levels compared to Calcitriol,primary keratinocytes,comparable reduction in CPD levels to keratinocytes treated with Calcitriol
rrrrrrrrrylpnkaksr ([dR][dR][dR][dR][dR][dR][dR][dR][dR][dY][dL][dP][dN][dK][dA][dK][dS][dR]) [IK236770],wound healing (wound closure % percentage),"[1]; day 5, vs negative control",statistically significant increase in wound healing
"Human rheumatoid synovial fibroblast MMP-1 proenzyme, activated with APMA (protein) FVLTEGNPRWEQTHLTYRIENYTPDLPRADVDHAIEKAFQLWSNVTPLTFTKVSEGQADIMISFVRGDHRDNSPFDGPGGNLAHAFQPGPGIGGDAHFDEDERWTNNFREYNLHRVAAHELGHSLGLSHSTDIGALMYPSYTFSGDVQLAQDDIDGIQAIYGRSQNPVQPIGPQTPKACDSKLTFDAITTIRGEVMFFKDRFYMRTNPFYPEVELNFISVFWPQLPNGLEAAYEFADRDEVRFFKGNKYWAVQGQNVLHGYPKDIYSSFGFPRTVKHIDAALSEENTGKTYFFVANKYWRYDEYKRSMDPGYPKMIAHDFPGIGHKVDAVFMKDGFFYFFHGTRQYKFDPKTKRILTLQKANSWFNCRKN","MMP-1 enzyme activity in vitro (fluorimetric cleavage of Mca-Pro-Leu-Gly-Leu-Dap-Ala-Arg; peptide at 5, 10, 800 and 1000 uM pre-incubated with 8 nM activated enzyme)",[2],inhibits MMP-1 activation in a dose dependent manner
